# Experimental data as given in paper PMC11436758, “Computer-aided drug design to generate a unique antibiotic family” (Nature Communications, 2024).
# “And” between values parts separate entries of the source, which are not always exact repeats. Equal values may be shown once.
# Experiments:
# [1] = test system: 102 ATCC strains and clinical isolates of Staphylococcus, Streptomyces, and Enterococcus; experiment: MIC panel summary over all strains; assay type: cell-based; settings: of the seven strains above 2 μg/mL
# Protocol: (§1) We also sought to determine if DNM0547 was bacteriostatic or bactericidal. Time kill experiments were carried out using increasing doses of DNM0547 against two different strains of MRSA.
# The medium employed for the assay was Mueller Hinton II Broth (MHB II; Becton-Dickinson, Sparks, MD, USA). Agar plates used for the organisms were trypticase soy agar plus 5% sheep blood (BD; Sparks, MD, USA). MIC assay plates were prepared using the CLSI broth microdilution procedure. Automated liquid handlers (Multidrop 384, Biomek 2000 and Biomek FX) were used to conduct serial dilutions and liquid transfers. A standardized inoculum of each organism was prepared per CLSI methods. Suspensions were prepared to equal a 0.5 McFarland standard, followed by a 1:20 dilution in test media. The inocula were dispensed into sterile reservoirs divided by length (Beckman Colter) and the Biomek 2000 was used to inoculate the plates. Daughter plates were placed on the Biomek 2000 work surface in reverse orientation so that inoculation took place from low to high drug concentration. The Biomek 2000 delivered 10 μL of the diluted suspension into each well. These inoculations yielded a final cell concentration in the daughter plates of ~5 × 10^5 colony-forming units/mL in each well. The wells of the daughter plates ultimately contained 185 μL of broth, 5 μL of drug solution, and 10 μL of bacterial inoculum. Plates were covered with a sterile lid on the top plate, placed in plastic bags, and incubated at 35 °C for ~18 h. The microplates were viewed from the bottom using a plate viewer and the MIC was read. The MIC was recorded as the lowest concentration of drug that inhibited visible growth of the organism.
# [2] = test system: MRSA MMX 2119 (NRS23, USA100) and MRSA MMX 4675 (ATCC BAA-1556, USA300); experiment: Time kill; assay type: cell-based, S. aureus; settings: for drop in surviving bacteria: two strains of MRSA
# Protocol: as §1
# Supplementary Figure 5. Time kill of DNM0547 versus S. aureus. The time kill of DNM0547
# 4675 (ATCC BAA-1556, USA300) were determined. Representative experiments are shown. […]
# MRSA (ATCC 33591) = experiment: Rabbit ischemic ear wound model of infection by MRSA, topical treatment; assay type: in vivo, New Zealand White rabbits; settings: for % wound closure / wound size (mean) / Wound size (mm2): Fig 2a; for Wound size (mm2): individual wounds
# Protocol: New Zealand White rabbits from Charles River were employed for this study. Both male and female rabbits were used; sample size prevented disaggregation of data by sex. Investigators were blinded to group allocation, data collection, and data analysis. Food and water were given ad libidum and animals were acclimatized for 7 days with photoperiods of alternating 12 h light and dark at 21 °C in relative humidity of 40–50%. The formulation for delivery of DNM compounds was Glaxal base (WellSpring Pharmaceutical Canada Corp., Oakville, Canada). Formulation was performed by dissolving compound in Glaxal base to give final concentrations of 1% or 2% DNM compound (w/v). The analgesic (Buprenex 0.02 mg/kg sc) and anesthesia (isoflurane (0.5–5% with oxygen carrier 0.5–2 L/min) were used as required during procedures. An ischemia wound healing model was conducted surgically. Each wound was inoculated with 50 μl of 2 × 10^7 CFU/mL MRSA (ATCC #33591) and dressed. After 1 day, wounds were treated with either 50 μl control cream containing vehicle or 50 μl cream containing compound daily. Wounds were assessed and observations recorded using the Draize scoring system. Digital photographs of each wound were obtained and documented.
# AcpS_R48A = target: T1, AcpS_R48A (Escherichia coli, UniProt P24224, R48A); experiment: Inhibition of purified AcpS site-directed mutant by drug (Suppl Fig 3 source data); assay type: biochemical; settings: for AcpS rate nM/min, Mean / AcpS rate: Suppl Fig 3, [AcpS_R48A] 5 nM; for AcpS rate: replicates
# T1 construct: 6x-His (C); made in house
# T1 sequence (P24224 whole entry R48A): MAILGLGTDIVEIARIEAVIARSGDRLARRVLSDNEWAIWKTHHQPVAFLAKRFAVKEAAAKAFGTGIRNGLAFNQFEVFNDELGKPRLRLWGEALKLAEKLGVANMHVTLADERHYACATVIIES
compound,measurement,setting,value
CC(C)c1cc(Cl)ccc1-c1cc(-c2nnn[nH]2)c(-c2ccc(Cl)cc2C(C)C)s1 [DNM0547],number of strains with MIC 4 μg/mL,[1],four
same,number of strains with MIC 8 μg/mL,[1],two
same,number of strains with MIC 32 μg/mL,[1],one
same,drop in surviving bacteria,"[2]; 2x MIC, at 2 h and 6 h",three
same,drop in surviving bacteria,"[2]; 4x and 8x MIC, at 2 h",three
same,CFU/mL,"[2]; Suppl Fig 5a, S. aureus MMX 2119, 2X, 0 hr",7.70E+05 CFU/mL
same,CFU/mL,"[2]; Suppl Fig 5a, S. aureus MMX 2119, 2X, 2 hr",6.00E+02 CFU/mL
same,CFU/mL,"[2]; Suppl Fig 5a, S. aureus MMX 2119, 2X, 6 hr",3.00E+02 CFU/mL
same,CFU/mL,"[2]; Suppl Fig 5a, S. aureus MMX 2119, 2X, 24 hr",LOD
same,CFU/mL,"[2]; Suppl Fig 5a, S. aureus MMX 2119, 4X, 0 hr",7.70E+05 CFU/mL
same,CFU/mL,"[2]; Suppl Fig 5a, S. aureus MMX 2119, 4X, 2 hr",4.50E+02 CFU/mL
same,CFU/mL,"[2]; Suppl Fig 5a, S. aureus MMX 2119, 4X, 6 hr",1.50E+02 CFU/mL
same,CFU/mL,"[2]; Suppl Fig 5a, S. aureus MMX 2119, 4X, 24 hr",LOD
same,CFU/mL,"[2]; Suppl Fig 5a, S. aureus MMX 2119, 8X, 0 hr",7.70E+05 CFU/mL
same,CFU/mL,"[2]; Suppl Fig 5a, S. aureus MMX 2119, 8X, 2 hr",LOD
same,CFU/mL,"[2]; Suppl Fig 5a, S. aureus MMX 2119, 8X, 6 hr",LOD
same,CFU/mL,"[2]; Suppl Fig 5a, S. aureus MMX 2119, 8X, 24 hr",LOD
same,CFU/mL,"[2]; Suppl Fig 5b, S. aureus MMX 4657, 2X, 0 hr",1.01E+06 CFU/mL
same,CFU/mL,"[2]; Suppl Fig 5b, S. aureus MMX 4657, 2X, 2 hr",1.05E+03 CFU/mL
same,CFU/mL,"[2]; Suppl Fig 5b, S. aureus MMX 4657, 2X, 6 hr",LOD
same,CFU/mL,"[2]; Suppl Fig 5b, S. aureus MMX 4657, 2X, 24 hr",LOD
same,CFU/mL,"[2]; Suppl Fig 5b, S. aureus MMX 4657, 4X, 0 hr",1.01E+06 CFU/mL
same,CFU/mL,"[2]; Suppl Fig 5b, S. aureus MMX 4657, 4X, 2 hr",2.50E+02 CFU/mL
same,CFU/mL,"[2]; Suppl Fig 5b, S. aureus MMX 4657, 4X, 6 hr",LOD
same,CFU/mL,"[2]; Suppl Fig 5b, S. aureus MMX 4657, 4X, 24 hr",LOD
same,CFU/mL,"[2]; Suppl Fig 5b, S. aureus MMX 4657, 8X, 0 hr",1.01E+06 CFU/mL
same,CFU/mL,"[2]; Suppl Fig 5b, S. aureus MMX 4657, 8X, 2 hr",LOD
same,CFU/mL,"[2]; Suppl Fig 5b, S. aureus MMX 4657, 8X, 6 hr",LOD
same,CFU/mL,"[2]; Suppl Fig 5b, S. aureus MMX 4657, 8X, 24 hr",LOD
same,% wound closure,MRSA (ATCC 33591); Day 1,0%
same,wound size (mean),MRSA (ATCC 33591); Day 1,30.44 mm2
same,% wound closure,MRSA (ATCC 33591); Day 3,2.62%
same,wound size (mean),MRSA (ATCC 33591); Day 3,29.642 mm2
same,% wound closure,MRSA (ATCC 33591); Day 6,5.42%
same,wound size (mean),MRSA (ATCC 33591); Day 6,28.797 mm2
same,% wound closure,MRSA (ATCC 33591); Day 9,32.45%
same,wound size (mean),MRSA (ATCC 33591); Day 9,20.563 mm2
same,% wound closure,MRSA (ATCC 33591); Day 12,53.18%
same,wound size (mean),MRSA (ATCC 33591); Day 12,14.254 mm2
same,% wound closure,MRSA (ATCC 33591); Day 15,73.94%
same,wound size (mean),MRSA (ATCC 33591); Day 15,7.93 mm2
same,% wound closure,MRSA (ATCC 33591); Day 18,87.25%
same,wound size (mean),MRSA (ATCC 33591); Day 18,3.88 mm2
same,% wound closure,MRSA (ATCC 33591); Day 21,97.93%
same,wound size (mean),MRSA (ATCC 33591); Day 21,0.636 mm2
same,Wound size (mm2),MRSA (ATCC 33591); Day 1,29.51 mm2 and 29.83 mm2 and 28.32 mm2 and 27.53 mm2 and 32.52 mm2 and 34.03 mm2 and 26.69 mm2 and 25.2 mm2 and 36.13 mm2 and 34.64 mm2
same,Wound size (mm2),MRSA (ATCC 33591); Day 3,31.06 mm2 and 29.08 mm2 and 27.25 mm2 and 24.3 mm2 and 31.24 mm2 and 33.16 mm2 and 27.53 mm2 and 25.7 mm2 and 33.48 mm2 and 33.62 mm2
same,Wound size (mm2),MRSA (ATCC 33591); Day 6,28.85 mm2 and 31.18 mm2 and 26.33 mm2 and 24.01 mm2 and 30.73 mm2 and 32.69 mm2 and 26.4 mm2 and 21.93 mm2 and 33.19 mm2 and 32.66 mm2
same,Wound size (mm2),MRSA (ATCC 33591); Day 9,23.09 mm2 and 21.11 mm2 and 22.61 mm2 and 20.99 mm2 and 19.44 mm2
same,Wound size (mm2),MRSA (ATCC 33591); Day 15,10.17 mm2 and 8.72 mm2 and 14.95 mm2 and 20.1 mm2 and 0.9 mm2 and 0.08 mm2 and 1.02 mm2 and 4 mm2 and 10.8 mm2 and 8.56 mm2
same,Wound size (mm2),MRSA (ATCC 33591); Day 18,8.29 mm2 and 0.93 mm2 and 7.78 mm2 and 10.81 mm2 and 0.41 mm2 and 0 mm2 and 0.53 mm2 and 2.2 mm2 and 3.09 mm2 and 4.76 mm2
same,Wound size (mm2),MRSA (ATCC 33591); Day 21,0 mm2 (8×) and 5.12 mm2 and 1.24 mm2
same,reduction in bacterial survival as compared to vehicle control,"MRSA (ATCC 33591); quantitative microbiology at day 14, topical",> 99%
same,bacteria in the wound (CFUs per gram of tissue at end of study),MRSA (ATCC 33591); topical 2%,effectively eliminated bacteria from the wound
same,day of complete wound closure,MRSA (ATCC 33591); topical 2%,≤ 21 days
same,wound closure,"MRSA (ATCC 33591); topical for 14 days, versus vehicle control",significantly improved wound closure
same,"AcpS rate nM/min, Mean",AcpS_R48A; Drug Conc 1 uM,97.88 nM/min
same,AcpS rate,AcpS_R48A; Drug Conc 1 uM,102.89 nM/min and 96.62 nM/min and 94.12 nM/min
same,"AcpS rate nM/min, Mean",AcpS_R48A; Drug Conc 2 uM,93.89 nM/min
same,AcpS rate,AcpS_R48A; Drug Conc 2 uM,97.97 nM/min and 91.69 nM/min and 92.02 nM/min
same,"AcpS rate nM/min, Mean",AcpS_R48A; Drug Conc 4 uM,94.54 nM/min
same,AcpS rate,AcpS_R48A; Drug Conc 4 uM,95.47 nM/min and 93.88 nM/min and 94.27 nM/min
same,"AcpS rate nM/min, Mean",AcpS_R48A; Drug Conc 8 uM,92.47 nM/min
same,AcpS rate,AcpS_R48A; Drug Conc 8 uM,92.76 nM/min and 91.81 nM/min and 92.85 nM/min
same,"AcpS rate nM/min, Mean",AcpS_R48A; Drug Conc 16 uM,48.14 nM/min
same,AcpS rate,AcpS_R48A; Drug Conc 16 uM,58.48 nM/min and 54.48 nM/min and 31.45 nM/min
same,"AcpS rate nM/min, Mean",AcpS_R48A; Drug Conc 32 uM,20.22 nM/min
same,AcpS rate,AcpS_R48A; Drug Conc 32 uM,22.18 nM/min and 16.02 nM/min and 22.44 nM/min
same,"AcpS rate nM/min, Mean",AcpS_R48A; Drug Conc 64 uM,10.15 nM/min
same,AcpS rate,AcpS_R48A; Drug Conc 64 uM,9.77 nM/min and 11.77 nM/min and 8.90 nM/min
same,"AcpS rate nM/min, Mean",AcpS_R48A; Drug Conc 128 uM,4.77 nM/min
same,AcpS rate,AcpS_R48A; Drug Conc 128 uM,4.67 nM/min (2×) and 4.95 nM/min
same,remaining activity at 1 µM,"AcpS_R48A; read-out: % of untreated, Suppl Fig 3, [AcpS_R48A] 5 nM, Drug Conc 1 uM, replicates",106%
same,remaining activity at 2 µM,"AcpS_R48A; read-out: % of untreated, Suppl Fig 3, [AcpS_R48A] 5 nM, Drug Conc 2 uM, replicates",101%
same,remaining activity at 4 µM,"AcpS_R48A; read-out: % of untreated, Suppl Fig 3, [AcpS_R48A] 5 nM, Drug Conc 4 uM, replicates",98.7%
same,remaining activity at 8 µM,"AcpS_R48A; read-out: % of untreated, Suppl Fig 3, [AcpS_R48A] 5 nM, Drug Conc 8 uM, replicates",95.9%
same,remaining activity at 32 µM,"AcpS_R48A; read-out: % of untreated, Suppl Fig 3, [AcpS_R48A] 5 nM, Drug Conc 32 uM, replicates",22.9%
same,remaining activity at 64 µM,"AcpS_R48A; read-out: % of untreated, Suppl Fig 3, [AcpS_R48A] 5 nM, Drug Conc 64 uM, replicates",10.1%
same,remaining activity at 128 µM,"AcpS_R48A; read-out: % of untreated, Suppl Fig 3, [AcpS_R48A] 5 nM, Drug Conc 128 uM, replicates",4.83%
